# In US20240252476A1, “LPA1 ANTAGONISTS FOR TREATING INTERSTITIAL LUNG DISEASE” (Bristol-Myers Squibb Company, priority 2022, published 2024):
# Assays:
# [1] = tested on: participants with PPF; assay: Phase 2 study, PPF cohort: efficacy (ppFVC, FVC); format: in vivo, human; settings: for Relative reduction: 60 mg v placebo
# Experimental: (§1) A total of 123 participants with PPF were randomized. Participants (age ≥21 years) were randomized (1:1:1) to receive 30 mg or 60 mg Compound A or PBO twice daily for 26 weeks. […] Immunosuppressive medications (mycophenolate mofetil, mycophenolic acid, azathioprine and/or tacrolimus) were permitted only if dosing is stable for ≥6 months prior to screening. If receiving antifibrotic agents pirfenidone or nintedanib, patients had to receive a stable dosage for ≥3 months prior to screening and during the screening period; if not receiving pirfenidone or nintedanib, patients had to be naive to both drugs or not have received either 4 weeks prior to Day 1. A total of 47 (38.2%) subjects were receiving antifibrotic treatment (with or without immunosuppression therapy). Of those subjects, 34 were being treated with nintedanib and 13 with pirfenidone. Participants were stratified by usual interstitial pneumonia (UIP) pattern (presence versus absence) and background therapy (antifibrotics +/−ILD-targeted immunosuppression versus ILD-targeted immunosuppression alone versus none).UIP pattern was present in 52% of subjects and unclassifiable ILD was he most common disease categorization.
# The study was not powered to detect statistical significance (no formal testing). No target effect size was defined in the study design. There were two estimand approaches for analysis:
# Treatment Policy: Effect of treatment with dose reduction as part of treatment regimen.
# While-On Treatment: Effect of treatment without dose reduction.
# The main efficacy endpoint, rate of FVC decline (in […]) from baseline to wk-26 in the PPF cohort, was estimated using a linear mixed-effects model utilizing all FVC timepoints. It was analyzed under a primary estimand (utilizing all data, treatment policy strategy), and under supplementary estimand (utilizing all data up to the point of dose reduction, while-on-treatment strategy). Analysis was performed in the overall population as well as in sub-groups by 1) background anti-fibrotic treatment or not 2) UIP radiographic pattern (presence or not). The mean baseline ppFVC was 66.700 for the PPF cohort.
# [2] = Phase 1 multiple ascending dose study (Part B), blood pressure in healthy participants; format: in vivo, human; settings: MAD, 14-day treatment period
# Experimental: (§2) The study was performed in 3 parts in 112 healthy male and female participants, including 24 Japanese participants. Female participants were to be not of childbearing potential. The present study was designed to evaluate the safety and tolerability, PK, and exploratory PD of an oral suspension of Compound A. Parts A and B (Cohort B1 only) enrolled healthy participants and was conducted at a site in The Netherlands and Part B (Cohort B2 to B5) enrolled healthy non-Japanese participants and was conducted at a site in the United Kingdom (UK). Part C enrolled healthy Japanese participants and was conducted at the same site in the UK.
# Part B was a MAD study in a planned number of 6 sequential dose escalation cohorts (10 mg QD, 30 mg QD, 30 mg BID, 60 mg BID, 125 mg BID, and ≤250 mg BID) of 8 healthy participants (6 active+2 placebo) each, under fasted conditions. However, Cohort B6 (≤250 mg BID) was cancelled because sufficient safety and PK data had been obtained at doses up to 125 mg BID. […]
# Physical examinations, vital sign measurements (including orthostasis testing in Cohort A6, Cohort B3 to B5, and C1 to C3 at selected time points), 12-lead electrocardiogram (ECG), and clinical laboratory evaluations were performed at selected times throughout the study. […] Participants were closely monitored for adverse events (AEs). […]
# [3] = Phase 2 study, PPF cohort: safety and blood pressure reduction criteria; format: in vivo, human
# Experimental: as §1
# Patient is experiencing any of the following, confirmed by retest within 15 minutes: • Seated systolic blood pressure <85 mmHg • Seated diastolic blood pressure <55 mmHg • Orthostatic hypotension
# Patient is experiencing symptoms that, in the investigator's opinion, could be associated with a reduction in blood pressure and is also experiencing at least one of the following, confirmed by retest within 15 minutes: • Seated systolic blood pressure <100 mmHg or seated diastolic blood pressure <60 mmHg • Decrease of seated systolic blood pressure of ≥20 mmHg from the previous visit or decrease of seated diastolic blood pressure of ≥10 mmHg from the previous visit • Orthostatic hypotension • Orthostatic tachycardia
# [4] = Phase 1 multiple ascending dose study (Part C), blood pressure in healthy Japanese participants; format: in vivo, human
# Experimental: as §2
# Part C was a MAD study in 3 sequential dose escalation cohorts (30 mg BID, 60 mg BID, and 90 mg BID) of 8 healthy Japanese participants (6 active+2 placebo) each. Eligible participants in Cohorts C1 to C3 received study drug (Compound A or placebo) administered orally for 14 days.
# Physical examinations, vital sign measurements (including orthostasis testing in Cohort A6, Cohort B3 to B5, and C1 to C3 at selected time points), 12-lead electrocardiogram (ECG), and clinical laboratory evaluations were performed at selected times throughout the study. In addition, Holter monitoring was performed for the first 24 hours post dose on Day 1 in Part A (not in FE/pH cohort), and also for the first 24 hours post dose on Day 1 and Day 14 in Parts B and C. Participants were closely monitored for adverse events (AEs). Blood samples were collected for up to 14 days (follow-up visit) after (last) study drug administration for PK analysis. In addition, blood and urine were collected for exploratory biomarker assessments and for biobanking of samples for potential analyses. Urine was collected for potential PK analysis for up to 96 hours after a single dose of Compound A or placebo was administered in the SAD part, and for up to 24 hours after the first (morning) dose of study drug on Day 1 and for up to 24 hours after the last (morning) dose of study drug on Day 14 in the MAD parts.
# [5] = tested on: participants with IPF; assay: Phase 2 study, IPF cohort: efficacy (ppFVC, FVC); format: in vivo, human; settings: for Rate of change in ppFVC over 26 weeks: 60-mg arm
# Experimental: A total of 278 participants with IPF were randomized and 276 participants were treated as of theinal analyses data cut-off (4 Aug. 2022). Male and female participants ≥40 years of age with IPF and percent predicted forced vital capacity (ppFVC) ≥40% and percent predicted DLCO (ppDLCO) ≥25%; diagnosed within 7 years of screening; having a centrally-read chest HRCT obtained at screening that was consistent with UIP or probable UIP, or having a lung biopsy consistent with UIP were eligible to enter the study. The mean baseline ppFVC for all subjects was 76.5%. In the primary IPF cohort, participants were randomized (1:1:1) to receive 30 mg or 60 mg Compound A or placebo (PBO) twice daily for 26 weeks. Participants were stratified by standard of care (SoC) IPF therapy (pirfenidone versus nintedanib versus none) and region (Japan versus Rest of World) at randomization.
# The primary objective of the study was to determine the rate of change in ppFVC from baseline to Week 26. The primary objective was evaluated with a two estimand framework to handle the intercurrent event of dose reduction to 10 mg BID or matching PBO when pre-specified low BP criteria is met. The primary estimand is adopted to estimate treatment effect when dose reduction is implemented. The supplementary estimand is adopted to estimate the effect of treatment without dose reduction.
# Analysis Strategy: The primary estimand was to evaluate the efficacy of Compound A at 30 mg or 60 mg twice daily, compared to PBO in IPF participants who met the enrollment criteria, with or without use of SoC. The rate of decline in ppFVC (%) from baseline to Week 26 was compared using the difference between each dose and PBO as a population level summary regardless of dose reduction or treatment discontinuation for any reason (treatment policy strategy).
# Analysis Strategy: The supplementary estimand for the primary objective is to evaluate the efficacy of Compound A at 30 mg or 60 mg twice daily without dose reduction, compared to the PBO in IPF subjects who met the enrollment criteria, with or without use of SoC. The rate of decline in ppFVC (%) from baseline to Week 26 has been compared using the difference between each dose and PBO as a population level summary regardless of treatment discontinuation for any reason (treatment policy strategy). In the event of dose reduction, data collected after dose reduction will not be considered relevant to the treatment effect of interest and therefore, will be treated as missing (while-on-treatment strategy).
# [6] = Effect of single and multiple ascending doses of Compound B on blood pressure; format: in vivo
# Description: and is described in U.S. Patent Application Publication No. 2010/0311799. Single ascending dose of Compound B caused a drop in blood pressure starting ˜1.25 hr post dose (FIG. 5).
# [7] = tested on: patients with PPF; settings: 52-week study period; cited from earlier work
# [8] = tested on: patients with IPF; settings: cited from earlier work
smiles,measurement,setting,value
"CCCN(C)C(=O)OCc1c(-c2ccc(O[C@H]3CCC[C@H](C(=O)O)C3)c(C)n2)nnn1C [Compound A, (1S,3S)-3-((2-methyl-6-(1-methyl-5-(((methyl(propyl)carbamoyl)-oxy)methyl)-1H-1,2,3-triazol-4-yl)pyridin-3-yl)oxy)cyclohexane-1-carboxylic acid]",Relative reduction,[1]; Anti-fibrotic subgroup,75%
same,Relative reduction,[1]; No antifibrotic subgroup,63%
same,Relative reduction,[1]; Non UIP subgroup,84%
same,Relative reduction,[1]; UIP subgroup,54%
same,Relative reduction,[1]; overall,69%
same,Rate of change in ppFVC over 26 weeks,"[1]; 30-mg arm, treatment policy strategy",−2.7%
same,Rate of change in ppFVC over 26 weeks,"[1]; 30-mg arm, while-on-treatment strategy",−2.5%
same,Rate of change in ppFVC over 26 weeks,"[1]; 60-mg arm, treatment policy strategy",−1.1%
same,Rate of change in ppFVC over 26 weeks,"[1]; 60-mg arm, while-on-treatment strategy",−1.3%
same,Treatment difference 60 mg v placebo in rate of decline in ppFVC,"[1]; Non UIP subgroup, baseline to Week 26",3.80
same,"Treatment difference in rate of change in ppFVC, 60-mg vs placebo",[1]; treatment policy strategy,3.2%
same,"Treatment difference in rate of change in ppFVC, 60-mg vs placebo",[1]; while-on-treatment strategy,2.9%
same,Magnitude of BP reductions with repeated dosing,[2],no clear changes in the magnitude of BP reductions with repeated dosing
same,"Low BP thresholds (""events"")",[3]; 30 mg,30%
same,Deaths due to TEAEs,[3]; 30 mg (n = 40),0 no.
same,Dizziness,[3]; 30 mg (n = 40),0 no.
same,Hypertension,[3]; 30 mg (n = 40),0 no.
same,Deaths due to TEAEs,[3]; 60 mg (n = 42),0 no.
same,Discontinuations due to TEAEs,[3]; 60 mg (n = 42),0 no.
same,Dyspnea,[3]; 60 mg (n = 42),0 no.
same,Rash,[3]; 60 mg (n = 42),0 no.
same,Vomiting,[3]; 60 mg (n = 42),0 no.
same,"DBP, Baseline",[4]; Japanese MAD 30 mg BID (C1),8.8 ± 5.12 mmHg
same,"DBP, Reduction",[4]; Japanese MAD 30 mg BID (C1),72.2 ± 3.87 mmHg
same,"DBP, Baseline",[4]; Japanese MAD 60 mg BID (C2),8.2 ± 10.40 mmHg
same,"DBP, Reduction",[4]; Japanese MAD 60 mg BID (C2),73.8 ± 6.18 mmHg
same,"DBP, Baseline",[4]; Japanese MAD 90 mg BID,8.0 ± 8.22 mmHg
same,"DBP, Reduction",[4]; Japanese MAD 90 mg BID,70.7 ± 7.58 mmHg
same,Dose dependence of BP reduction,[4]; Japanese MAD cohorts,no clear Compound A dose-dependent BP reduction trend
same,Treatment response vs PBO (rate of decline of ppFVC and FVC),"[5]; 60 mg BID, Week 26, overall population",favorable treatment responses
same,Relative treatment benefit vs PBO (ppFVC),"[5]; 60 mg BID, primary estimand, not on background SoC",113%
same,Relative treatment benefit vs PBO (ppFVC),"[5]; 60 mg BID, primary estimand, on background SoC",39%
same,Relative treatment benefit vs PBO (ppFVC),"[5]; 60 mg BID, supplementary estimand, not on background SoC",123%
same,Relative treatment benefit vs PBO (ppFVC),"[5]; 60 mg BID, supplementary estimand, on background SoC",44%
same,Rate of change in ppFVC over 26 weeks,[5]; treatment policy strategy,−1.2%
same,Rate of change in ppFVC over 26 weeks,[5]; while-on-treatment strategy,−1.1%
same,"Treatment difference in rate of change in ppFVC, 60-mg arm vs placebo",[5]; treatment policy strategy,1.4%
same,"Treatment difference in rate of change in ppFVC, 60-mg arm vs placebo",[5]; while-on-treatment strategy,1.8%
"Cc1noc(-c2ccc(-c3ccc(C4(C(=O)O)CC4)cc3)cc2)c1NC(=O)O[C@H](C)c1ccccc1 [Compound B, sodium (R)-1-(4′-(3-methyl-4-(((1-phenylethoxy)carbonyl)amino)isoxazol-5-yl)-[1,1′-biphenyl]-4-yl)cyclopropane-1-carboxylate]",Normalization of blood pressure,[6]; multiple days of dosing (FIG. 6),~3 days
same,Start of drop in blood pressure post dose,[6]; single ascending dose (FIG. 5),~1.25 h
COC(=O)c1ccc2c(c1)NC(=O)/C2=C(\Nc1ccc(N(C)C(=O)CN2CCN(C)CC2)cc1)c1ccccc1 [nintedanib],Progression of lung fibrosis vs placebo (annual rate of decline in FVC),[7],slower progression of lung fibrosis than those who received placebo
same,Decline in lung function,[8],significantly reduce the decline in lung function
Cc1ccc(=O)n(-c2ccccc2)c1 [pirfenidone],Decline in lung function,[8],significantly reduce the decline in lung function
